Test [1] deals with tau tangles/Aβ plaques on AD brain sections. Kind of test: Assay 1: direct staining of human Alzheimer's disease brain sections (fluorescence). It counts as binding. Also noted: key to Direct staining of tau tangles/Aβ plaques on AD brain sections at 100 μM / Direct staining of tau tangles on AD brain sections at 100 μM / Direct staining of Aβ plaques on AD brain sections at 100 μM / Direct staining of tau tangles on AD brain sections (footnote a: at 250 μM): − (No); +++ (strong); ++ (good); + (weak). To be noted: tangles; for Direct staining of tau tangles on AD brain sections at 100 μM: 100 μM compound. In a few lines:
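Frozen […] amygdala sections from Braak V-VI AD donors, PFA-fixed, incubated with compound at 100 μM in 50% ethanol for 20 min at room temperature in the dark. Sudan Black quenched autofluorescence, then staining detected by fluorescence microscopy.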

In test [2] the target is Tau enriched paired helical filaments (PHF) from human Alzheimer's disease (AD) brains (Homo sapiens, UniProt P10636). Kind of test: Assay 3: backscattering interferometry, dissociation constants (Kd). The test is classed as binding. Conditions: PHF batch 6 (pooled frontal cortex, 25 AD patients); read-out: [Kd] on PHF batch 6. From the text:
Assay 3 (Backscattering Interferometry):
Determination of Dissociation Constants (Kd) of Compounds of this Invention
Enrichment of Paired Helical Filaments (PHF's) from Human Alzheimer's Disease Brains
For backscattering interferometry, Tau enriched paired helical filaments (PHF) from human Alzheimer's disease (AD) brains were used as a target. Due to the limited availability of tissues, to determine dissociation constants (Kd) of compounds of this invention to the target, two different batches of enriched PHF were used. These batches are identified as batch 6 and 7 and were prepared as follows.
PHF batch number 6 was prepared starting from 25 g frontal cortical tissue from post-mortem brains of 25 Alzheimer's disease (AD) patients which were obtained from the London Tissue Bank. The mean age at death for the AD patients was 76 years (48% females). Brain samples were characterized for Braak disease stage (Braak and Braak, 1991), with most donors displaying a stage VI. The postmortem interval between death and brain dissection was between 6 and 65 h. Human brain homogenates were prepared by SB Drug Discovery (Glasgow, Scotland, UK) from the post-mortem cortical tissue of the 25 patients). Each tissue (1 g) was homogenized with a Dounce glass homogenizer in 1.5 mL 100 mM 2-(N-morpholino) ethane-sulfonic acid (MES) pH 6.8, 0.75 M NaCl, 1 mM EGTA, 0.5 mM MgSO4, 2 mM DTT containing protease inhibitors (Complete; Roche 11697498001). For each sample, two aliquots containing 0.5 g brain homogenates in 0.75 mL were shipped to AC Immune SA on dry ice and stored at −80° C. For the enrichment of PHF, 1 aliquot per donor corresponding to total 12.5 g of brain tissue were thawed on ice and then incubated at 4° C. for 20 min to depolymerize any residual microtubules. All samples were then pooled and transferred to three polycarbonate centrifuge bottles (16×76 mm; Beckman 355603).
PHF batch number 7 was prepared starting from 32 g of parietal cortex tissue from post-mortem brain of one Alzheimer's disease (AD) patient was obtained from an external provider (Tissue Solution). The patient was a person who died for end stage AD. The brain sample was collected 5 h post-mortem and characterized for Braak disease stage (Braak and Braak, 1991) as stage VI. The method used for the PHF enrichment was modified from published procedures (Jicha et al., 1997; Rostagno and Ghiso, 2009). Around 16 g of the AD human brain was thawed on ice and homogenized with 50 ml of homogenization buffer [0.75 M NaCl in RAB buffer (100 mM 2-(N-morpholino) ethanesulfonic acid (MES), 1 mM EGTA, 0.5 mM MgSO4, 2 mM DTT, pH 6.8) supplemented with protease inhibitors (Complete; Roche 11697498001)] in a glass Dounce homogenizer. The homogenate was then incubated at 4° C. for 20 min to let depolymerize any residual microtubules, before being transferred into polycarbonate centrifuge bottles (16×76 mm; Beckman 355603). For both purifications, brain homogenates were then centrifuged at 11,000 g (12,700 RPM) in an ultracentrifuge (Beckman, XL100K) for 20 min at 4° C. using the pre-cooled 70.1 rotor (Beckman, 342184). Pellets were kept on ice. Supernatants were pooled into polycarbonate bottles and centrifuged again at 100,000 g (38,000 RPM) for 1 h at 4° C. in the 70.1 Ti rotor to isolate PHF-rich pellets, whereas soluble Tau remained in the supernatants. The pellets from the first and second centrifugations were resuspended in 120 mL of extraction buffer [10 mM Tris-HCl pH 7.4, 10% sucrose, 0.85 M NaCl, 1% protease inhibitor (Calbiochem 539131), 1 mM EGTA, 1% phosphatase inhibitor (Sigma P5726 and P0044)]. The solution was then transferred into polycarbonate centrifuge bottles (16×76 mm; Beckman 355603) and centrifuged at 15,000 g (14,800 RPM) in an ultracentrifuge (Beckman, XL100K) for 20 min at 4° C. using the 70.1 Ti rotor. […]

A word on the Kd: it is the free concentration of one partner at which half of the binding sites on the other are occupied at equilibrium, for simple one-to-one binding.

Chain of Tau enriched paired helical filaments (PHF) from human Alzheimer's disease (AD) brains (P10636 623-708 limits assumed): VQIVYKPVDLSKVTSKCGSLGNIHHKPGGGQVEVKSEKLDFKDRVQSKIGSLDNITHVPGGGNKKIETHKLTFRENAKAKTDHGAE

Turning to `Cn1c2ccncc2c2ccc(Nc3ccc(OC(F)F)cc3)nc21` [Example 9], in test [1], the “Direct staining of tau tangles on AD brain sections at 100 μM” value is “++ (tangles)”.

With `Cn1c2ccncc2c2ccc(Nc3cccc(OCCF)c3)nc21` [Example 8], the “Direct staining of tau tangles on AD brain sections at 100 μM” value in test [1] is “++ (tangles)”. Further, the Kd in test [2] is 19 ± 3 nM. For the molecule `Cn1c2ccncc2c2ccc(Nc3ccc(F)c(F)c3)nc21` [Example 2], in test [1] (250 μM compound), the “Direct staining of tau tangles on AD brain sections (footnote a: at 250 μM)” value was “+ (tangles)^a”. In addition, the Kd in test [2] turned out to be 33 ± 5 nM.

For the origin of these results see patent US10662193B2, “Carbazole and carboline compounds for use in the diagnosis, treatment, alleviation or prevention of disorders associated with amyloid or amyloid-like proteins” (AC IMMUNE SA, priority 2014, dated 2020).
